Experimental findings from patent US10538498B2, “1,3,4-oxadiazole sulfonamide derivative compounds as histone deacetylase 6 inhibitor, and the pharmaceutical composition comprising the same” (Chong Kun Dang Pharmaceutical Corp., priority 2015, dated 2020) are described below.

One test addresses T1, human recombinant HDAC1 (Homo sapiens, UniProt Q13547).
T1 construct: purchased Enzo Life Science BML-SE456
The experiment in a line: HDAC1 enzyme activity inhibition assay (HDAC Fluorimetric Drug Discovery Kit). The format is biochemical. The settings on record: 0.3 μg enzyme, 10 μM substrate, 30° C., 60 minutes. The protocol: In order to examine the HDAC6 selectivity of the compounds of formula I of the present invention by HDAC1 and HDAC6 enzymatic activity inhibition assays, an experiment was performed using a conventional substance as a control.
HDAC enzyme activity was measured using a HDAC Fluorimetric Drug Discovery Kit (BML-AK511, 516, Enzo Life Science). For the HDAC1 enzyme activity test, human recombinant HDAC1 (BML-SE456) was used as an enzyme source, and Fluor de Lys®-“SIRT1 (BNL-KI177) was used as a substrate. A 5-fold dilution of the compound was seeded into a 96-well plate, and then 0.3 μg of the enzyme and 10 μM of the substrate were added to each well of the plate and allowed to react at 30° C. for 60 minutes. Then, Fluor de Lys®-Developer II (BML-KI176) was added thereto and allowed to react for 30 minutes, after which the fluorescence value (Ex 360, Em 460) was measured using a multi-plate reader (Flexstation 3, Molecular Device). The HDAC6 enzyme was tested using human recombinant HDAC6 (382180) (Calbiochem) according to the same protocol as the HDAC1 enzyme activity test method. Based on the resulting values, each IC50 value was calculated using GraphPad Prism4.0 program.

The next test concerns the target T2, human recombinant HDAC6 (Homo sapiens, UniProt Q9UBN7).
T2 construct: purchased Calbiochem 382180
T2 sequence (Q9UBN7 1-1215): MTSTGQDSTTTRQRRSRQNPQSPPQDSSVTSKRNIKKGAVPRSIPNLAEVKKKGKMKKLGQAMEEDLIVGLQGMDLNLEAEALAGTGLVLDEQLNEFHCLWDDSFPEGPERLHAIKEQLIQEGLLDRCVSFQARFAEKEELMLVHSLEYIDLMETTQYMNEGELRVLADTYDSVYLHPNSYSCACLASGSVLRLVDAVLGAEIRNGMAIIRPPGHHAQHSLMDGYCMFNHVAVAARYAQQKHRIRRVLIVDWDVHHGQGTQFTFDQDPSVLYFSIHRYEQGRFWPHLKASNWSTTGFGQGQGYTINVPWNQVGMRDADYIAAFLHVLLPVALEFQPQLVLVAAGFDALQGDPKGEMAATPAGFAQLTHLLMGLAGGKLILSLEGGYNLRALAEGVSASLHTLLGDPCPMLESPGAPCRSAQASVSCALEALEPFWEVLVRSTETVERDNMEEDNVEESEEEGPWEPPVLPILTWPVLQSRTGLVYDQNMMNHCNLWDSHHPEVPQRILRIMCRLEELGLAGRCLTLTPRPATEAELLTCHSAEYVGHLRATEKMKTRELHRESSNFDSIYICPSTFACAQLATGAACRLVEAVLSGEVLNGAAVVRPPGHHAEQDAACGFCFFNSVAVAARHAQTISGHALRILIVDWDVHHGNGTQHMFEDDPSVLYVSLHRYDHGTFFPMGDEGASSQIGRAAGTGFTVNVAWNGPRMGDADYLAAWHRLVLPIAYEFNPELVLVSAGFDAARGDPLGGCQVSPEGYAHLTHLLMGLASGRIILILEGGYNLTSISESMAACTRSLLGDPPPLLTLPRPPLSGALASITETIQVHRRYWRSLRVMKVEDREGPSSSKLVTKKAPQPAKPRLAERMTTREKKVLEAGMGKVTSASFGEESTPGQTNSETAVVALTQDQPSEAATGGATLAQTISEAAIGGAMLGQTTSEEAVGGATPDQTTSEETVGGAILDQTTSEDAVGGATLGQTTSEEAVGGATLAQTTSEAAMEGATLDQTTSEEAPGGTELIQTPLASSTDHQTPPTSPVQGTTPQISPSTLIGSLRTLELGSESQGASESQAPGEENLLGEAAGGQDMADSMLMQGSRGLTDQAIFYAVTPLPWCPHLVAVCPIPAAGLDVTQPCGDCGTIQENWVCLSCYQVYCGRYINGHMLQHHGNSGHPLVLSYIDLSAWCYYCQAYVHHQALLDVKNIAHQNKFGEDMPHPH
The experiment in a line: HDAC6 enzyme activity inhibition assay (HDAC Fluorimetric Drug Discovery Kit). Conditions: for HDAC6 selectivity (fold): HDAC1 vs HDAC6; for IC50: same protocol as the HDAC1 enzyme activity test. The class given is biochemical. In outline:
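IC50s derived from fluorescence (Ex 360, Em 460) read after a 30-min developer step. Beforehand, compounds in 5-fold dilution series reacted 60 min at 30° C with 0.3 μg human recombinant enzyme and 10 μM Fluor de Lys-SIRT1 substrate.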

T1 sequence (Q13547 whole entry): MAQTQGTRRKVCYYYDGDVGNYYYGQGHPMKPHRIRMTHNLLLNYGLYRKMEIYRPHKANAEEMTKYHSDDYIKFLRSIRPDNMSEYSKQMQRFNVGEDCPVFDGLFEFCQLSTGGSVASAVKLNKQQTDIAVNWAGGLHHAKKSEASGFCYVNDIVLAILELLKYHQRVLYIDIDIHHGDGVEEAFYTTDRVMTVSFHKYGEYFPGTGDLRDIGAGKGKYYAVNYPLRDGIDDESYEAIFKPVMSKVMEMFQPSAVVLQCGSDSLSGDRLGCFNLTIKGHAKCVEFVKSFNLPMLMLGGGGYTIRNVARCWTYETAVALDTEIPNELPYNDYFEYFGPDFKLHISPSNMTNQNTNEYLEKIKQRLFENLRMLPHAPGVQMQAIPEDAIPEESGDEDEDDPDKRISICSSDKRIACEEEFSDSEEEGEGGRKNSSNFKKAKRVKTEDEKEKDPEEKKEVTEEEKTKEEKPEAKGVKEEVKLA

In general, IC50 refers to the point on the concentration scale where inhibition reaches its midpoint. Consider `CS(=O)(=O)N(Cc1ccc(-c2nnc(C(F)F)o2)c(F)c1)c1ccccc1` [Compound 11184, N-(4-(5-(difluoromethyl)-1,3,4-oxadiazol-2-yl)-3-fluorobenzyl)-N-phenylmethanesulfonamide], for which the IC50 at human recombinant HDAC1 is 2.27 µM. Besides, on human recombinant HDAC6, the “HDAC6 selectivity (fold)” value is reported as 63 fold and the IC50 stood at 0.036 µM.

For the compound `CS(=O)(=O)N(Cc1ccc(-c2nnc(C(F)(F)F)o2)cc1F)c1cccc(Cl)c1` [Compound 11190, N-(3-chlorophenyl)-N-(2-fluoro-4-(5-(trifluoromethyl)-1,3,4-oxadiazol-2-yl)benzyl)methanesulfonamide], the 50% inhibitory concentration (IC50) on human recombinant HDAC1 came out at 19.5 µM; on human recombinant HDAC6 it was 0.129 µM. For the same compound, the “HDAC6 selectivity (fold)” value on human recombinant HDAC6 stood at 151 fold.

On to `COc1ccc(N(Cc2ccc(-c3nnc(C(F)(F)F)o3)cc2F)S(C)(=O)=O)cc1` [Compound 11192, N-(2-fluoro-4-(5-(trifluoromethyl)-1,3,4-oxadiazol-2-yl)benzyl)-N-(4-methoxyphenyl)methanesulfonamide], for which, at human recombinant HDAC1, the IC50 is 7 µM. At human recombinant HDAC6, the “HDAC6 selectivity (fold)” value is 108 fold and the IC50 stood at 0.065 µM.

In the case of `CS(=O)(=O)N(Cc1ccc(-c2nnc(C(F)(F)F)o2)cc1F)c1cccc(Br)c1` [Compound 11196, N-(3-bromophenyl)-N-(2-fluoro-4-(5-(trifluoromethyl)-1,3,4-oxadiazol-2-yl)benzyl)methanesulfonamide], the IC50 at human recombinant HDAC1 was determined as 28.7 µM; at human recombinant HDAC6, 0.065 µM. The “HDAC6 selectivity (fold)” value at human recombinant HDAC6 worked out at 441 fold.

`CS(=O)(=O)N(Cc1ccc(-c2nnc(C(F)(F)F)o2)cn1)c1cccc(F)c1` [Compound 11216, N-(3-fluorophenyl)-N-((5-(5-(trifluoromethyl)-1,3,4-oxadiazol-2-yl)pyridin-2-yl)methyl)methanesulfonamide]: on human recombinant HDAC1, the IC50 was found to be 28 µM. On human recombinant HDAC6, the “HDAC6 selectivity (fold)” value is listed as 368 fold and the IC50 was 0.076 µM.

As to `CS(=O)(=O)N(Cc1ccc(-c2nnc(C(F)(F)F)o2)cc1F)c1ccc(C(F)(F)F)cc1` [Compound 11220, N-(2-fluoro-4-(5-(trifluoromethyl)-1,3,4-oxadiazol-2-yl)benzyl)-N-(4-(trifluoromethyl)phenyl)methanesulfonamide], the IC50 was found to be 26.2 µM on human recombinant HDAC1 and 0.031 µM on human recombinant HDAC6. The “HDAC6 selectivity (fold)” value at human recombinant HDAC6 was determined as 845 fold.

As to `CS(=O)(=O)N(Cc1ccc(-c2nnc(C(F)(F)F)o2)cc1F)c1ccc2c(c1)OCO2` [Compound 11226, N-(benzo[d][1,3]dioxol-5-yl)-N-(2-fluoro-4-(5-(trifluoromethyl)-1,3,4-oxadiazol-2-yl)benzyl)methanesulfonamide], on human recombinant HDAC1, the IC50 came to 11.6 µM. For the same compound, at human recombinant HDAC6, the “HDAC6 selectivity (fold)” value is listed as 297 fold and the half-maximal inhibitory concentration (IC50) came to 0.039 µM.

As to `CCS(=O)(=O)N(Cc1ccc(-c2nnc(C(F)(F)F)o2)cn1)c1ccc(F)c(Cl)c1` [Compound 11429, N-(3-chloro-4-fluorophenyl)-N-((5-(5-(trifluoromethyl)-1,3,4-oxadiazol-2-yl)pyridin-2-yl)methyl)ethanesulfonamide], the concentration for half-maximal inhibition (IC50) at human recombinant HDAC1 amounted to 18.7 µM. On human recombinant HDAC6, the “HDAC6 selectivity (fold)” value worked out at 288 fold and the concentration for half-maximal inhibition (IC50) was 0.065 µM.

For `CCS(=O)(=O)N(Cc1ccc(-c2nnc(C(F)(F)F)o2)cn1)c1ccccc1` [Compound 11430, N-phenyl-N-((5-(5-(trifluoromethyl)-1,3,4-oxadiazol-2-yl)pyridin-2-yl)methyl)ethanesulfonamide], the IC50 on human recombinant HDAC1 came out at 22.2 µM. For the same compound, at human recombinant HDAC6, the “HDAC6 selectivity (fold)” value amounted to 529 fold and the IC50 was found to be 0.042 µM.

Take `O=S(=O)(C1CCOCC1)N(Cc1ccc(-c2nnc(C(F)(F)F)o2)cn1)c1ccccc1` [Compound 11431, N-phenyl-N-((5-(5-(trifluoromethyl)-1,3,4-oxadiazol-2-yl)pyridin-2-yl)methyl)tetrahydro-2H-pyran-4-sulfonamide]: the IC50 at human recombinant HDAC1 was 28.1 µM; at human recombinant HDAC6, 0.062 µM. In addition, the “HDAC6 selectivity (fold)” value at human recombinant HDAC6 was 453 fold.

As to `CS(=O)(=O)N(Cc1ccc(-c2nnc(C(F)(F)F)o2)cn1)c1ccc(F)c(Cl)c1` [Compound 11432, N-(3-chloro-4-fluorophenyl)-N-((5-(5-(trifluoromethyl)-1,3,4-oxadiazol-2-yl)pyridin-2-yl)methyl)methanesulfonamide], the half-maximal inhibitory concentration (IC50) at human recombinant HDAC1 came out at 16.5 µM. At human recombinant HDAC6, the “HDAC6 selectivity (fold)” value came to 271 fold and the IC50 was 0.061 µM.

For `CN1CC(N2CCC(S(=O)(=O)N(Cc3ccc(-c4nnc(C(F)F)o4)cc3F)c3ccc(F)c(Cl)c3)CC2)C1` [Compound 11451, N-(3-chloro-4-fluorophenyl)-N-(4-(5-(difluoromethyl)-1,3,4-oxadiazol-2-yl)-2-fluorobenzyl)-1-(1-methylazetidin-3-yl)piperidine-4-sulfonamide], at human recombinant HDAC1, the IC50 worked out at 27.2 µM. In addition, at human recombinant HDAC6, the “HDAC6 selectivity (fold)” value was 3018 fold and the IC50 worked out at 0.009 µM.

For `O=C(CO)N1CC(N2CCC(S(=O)(=O)N(Cc3ccc(-c4nnc(C(F)F)o4)cc3F)c3ccc(F)c(Cl)c3)CC2)C1` [Compound 11452, N-(3-chloro-4-fluorophenyl)-N-(4-(5-(difluoromethyl)-1,3,4-oxadiazol-2-yl)-2-fluorobenzyl)-1-(1-(2-hydroxyacetyl)azetidin-3-yl)piperidine-4-sulfonamide], the IC50 on human recombinant HDAC1 was determined as 27.5 µM; at human recombinant HDAC6 it was 0.008 µM. Further, on human recombinant HDAC6, the “HDAC6 selectivity (fold)” value amounted to 3439 fold.

As to `CCS(=O)(=O)N(Cc1ccc(-c2nnc(C(F)F)o2)cn1)c1ccc(C)c(F)c1` [Compound 11460, N-((5-(5-(difluoromethyl)-1,3,4-oxadiazol-2-yl)pyridin-2-yl)methyl)-N-(3-fluoro-4-methylphenyl)ethanesulfonamide], the IC50 on human recombinant HDAC1 turned out to be 27.3 µM; at human recombinant HDAC6, 0.01 µM. In addition, the “HDAC6 selectivity (fold)” value on human recombinant HDAC6 is reported as 2727 fold.

Turning to `CCS(=O)(=O)N(Cc1ccc(-c2nnc(C(F)F)o2)cn1)c1ccc(F)c(C)c1` [Compound 11461, N-((5-(5-(difluoromethyl)-1,3,4-oxadiazol-2-yl)pyridin-2-yl)methyl)-N-(4-fluoro-3-methylphenyl)ethanesulfonamide], the IC50 at human recombinant HDAC1 stood at 27.7 µM; at human recombinant HDAC6, 0.01 µM. At human recombinant HDAC6, the “HDAC6 selectivity (fold)” value is 2769 fold.

On to `CCS(=O)(=O)N(Cc1ccc(-c2nnc(C(F)F)o2)cn1)c1ccc(F)c(F)c1` [Compound 11462, N-((5-(5-(difluoromethyl)-1,3,4-oxadiazol-2-yl)pyridin-2-yl)methyl)-N-(3,4-difluorophenyl)ethanesulfonamide], for which, at human recombinant HDAC1, the concentration for half-maximal inhibition (IC50) amounted to 21.1 µM. Besides, at human recombinant HDAC6, the “HDAC6 selectivity (fold)” value is reported as 2635 fold and the IC50 was found to be 0.008 µM.

Take `CCS(=O)(=O)N(Cc1ccc(-c2nnc(C(F)F)o2)cn1)c1cc(F)cc(F)c1` [Compound 11463, N-((5-(5-(difluoromethyl)-1,3,4-oxadiazol-2-yl)pyridin-2-yl)methyl)-N-(3,5-difluorophenyl)ethanesulfonamide]: the half-maximal inhibitory concentration (IC50) on human recombinant HDAC1 was found to be 22.3 µM. At human recombinant HDAC6, the “HDAC6 selectivity (fold)” value stood at 2789 fold and the IC50 was found to be 0.008 µM.
